Experimental data: the supplement of paper PMC10307832

Legend:
Assay in all cases: relative viability (nuclei count vs DMSO), 5 days (fraction); higher = more cells survive
Gemcitabine + Foretinib = compound: Nc1ccn([C@@H]2O[C@H](CO)[C@@H](O)C2(F)F)c(=O)n1 [Gemcitabine] + COc1cc2c(Oc3ccc(NC(=O)C4(C(=O)Nc5ccc(F)cc5)CC4)cc3F)ccnc2cc1OCCCN1CCOCC1 [Foretinib] (partner 0.25 µM)
Summary of the method: (§1)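 Relative viability was taken as the ratio of nuclei in treated wells to nuclei in vehicle wells. Lung cancer cell lines in 1536-well plates received compounds by pin tool one day after seeding, either one drug alone or a fixed anchor-drug dose plus five library-drug doses (not always all listed) in √10 steps. Nuclei were counted on 4× images after 5 days of treatment, and values are medians of duplicate plates.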

Gemcitabine + Luminespib = compound: Nc1ccn([C@@H]2O[C@H](CO)[C@@H](O)C2(F)F)c(=O)n1 [Gemcitabine] + CCNC(=O)c1noc(-c2cc(C(C)C)c(O)cc2O)c1-c1ccc(CN2CCOCC2)cc1 [Luminespib] (partner 0.01 µM)
Summary of the method: as §1

Gemcitabine + Tozasertib = compound: Nc1ccn([C@@H]2O[C@H](CO)[C@@H](O)C2(F)F)c(=O)n1 [Gemcitabine] + Cc1cc(Nc2cc(N3CCN(C)CC3)nc(Sc3ccc(NC(=O)C4CC4)cc3)n2)n[nH]1 [Tozasertib] (partner 0.1 µM)
Summary of the method: as §1

Gemcitabine + AZD7762 = compound: Nc1ccn([C@@H]2O[C@H](CO)[C@@H](O)C2(F)F)c(=O)n1 [Gemcitabine] + NC(=O)Nc1cc(-c2cccc(F)c2)sc1C(=O)N[C@H]1CCCNC1 [AZD7762] (partner 0.2 µM)
Summary of the method: as §1

Cell Line | relative viability (Gemcitabine + Foretinib; first compound 0.001 µM) | relative viability (Gemcitabine + Foretinib; first compound 0.003162 µM) | relative viability (Gemcitabine + Foretinib; first compound 0.01 µM) | relative viability (Gemcitabine + Foretinib; first compound 0.03162 µM) | relative viability (Gemcitabine + Foretinib; first compound 0.1 µM) | relative viability (Gemcitabine + Luminespib; first compound 0.001 µM) | relative viability (Gemcitabine + Luminespib; first compound 0.003162 µM) | relative viability (Gemcitabine + Luminespib; first compound 0.01 µM) | relative viability (Gemcitabine + Luminespib; first compound 0.03162 µM) | relative viability (Gemcitabine + Luminespib; first compound 0.1 µM) | relative viability (Gemcitabine + Tozasertib; first compound 0.001 µM) | relative viability (Gemcitabine + Tozasertib; first compound 0.003162 µM) | relative viability (Gemcitabine + Tozasertib; first compound 0.01 µM) | relative viability (Gemcitabine + Tozasertib; first compound 0.03162 µM) | relative viability (Gemcitabine + Tozasertib; first compound 0.1 µM) | relative viability (Gemcitabine + AZD7762; first compound 0.001 µM) | relative viability (Gemcitabine + AZD7762; first compound 0.003162 µM) | relative viability (Gemcitabine + AZD7762; first compound 0.01 µM) | relative viability (Gemcitabine + AZD7762; first compound 0.03162 µM) | relative viability (Gemcitabine + AZD7762; first compound 0.1 µM)
A549 | 0.998 | 0.901 | 0.616 | 0.0177 | 0.0104 |  |  |  |  |  |  |  |  |  |  |  |  |  |  | 
COR-L23 | 0.972 | 0.898 | 0.556 | 0.123 | 0.0959 | 0.742 | 0.704 | 0.311 | 0.143 | 0.0841 | 0.223 | 0.19 | 0.111 | 0.0883 | 0.0724 |  |  |  |  | 
COR-L 105 | 1.39 | 0.884 | 1.01 | 0.371 | 0.27 | 0.886 | 0.793 | 0.571 | 0.275 | 0.188 | 0.38 | 0.31 | 0.349 | 0.263 | 0.191 |  |  |  |  | 
Calu-6 | 0.847 | 0.566 | 0.403 | 0.0993 | 0.0677 |  |  |  |  |  |  |  |  |  |  |  |  |  |  | 
EBC-1 | 0.0943 | 0.0886 | 0.0845 | 0.0844 | 0.0813 |  |  |  |  |  |  |  |  |  |  |  |  |  |  | 
HCC-44 |  |  |  |  |  | 1.07 | 0.979 | 0.813 | 0.261 | 0.226 | 1.05 | 0.918 | 0.774 | 0.194 | 0.162 | 0.971 | 1.03 | 0.942 | 0.226 | 0.271
HCC-78 | 0.502 | 0.44 | 0.416 | 0.267 | 0.241 |  |  |  |  |  | 0.448 | 0.37 | 0.147 | 0.198 | 0.164 | 0.477 | 0.303 | 0.186 | 0.214 | 0.277
HCC-366 | 0.965 | 0.989 | 0.417 | 0.0476 | 0.0377 |  |  |  |  |  | 0.14 | 0.105 | 0.0801 | 0.0228 | 0.0235 | 0.27 | 0.16 | 0.0204 | 0.0203 | 0.0152
IA-LM | 1.07 | 0.916 | 1.11 | 0.0445 | 0.0363 |  |  |  |  |  |  |  |  |  |  |  |  |  |  | 
NCI-H520 | 0.887 | 0.684 | 0.286 | 0.199 | 0.153 | 0.22 | 0.231 | 0.224 | 0.201 | 0.252 | 0.422 | 0.446 | 0.316 | 0.208 | 0.239 |  |  |  |  | 
NCI-H661 | 1.04 | 0.871 | 0.956 | 0.341 | 0.218 | 0.905 | 0.934 | 0.694 | 0.274 | 0.209 | 0.367 | 0.366 | 0.338 | 0.263 | 0.219 |  |  |  |  | 
NCI-H1299 | 1.09 | 1.08 | 1.09 | 1.07 | 1.08 |  |  |  |  |  |  |  |  |  |  |  |  |  |  | 
NCI-H1563 | 0.948 | 0.916 | 0.706 | 0.566 | 0.526 | 0.522 | 0.549 | 0.585 | 0.483 | 0.441 |  |  |  |  |  |  |  |  |  | 
NCI-H1648 |  |  |  |  |  |  |  |  |  |  | 0.593 |  | 0.407 | 0.251 | 0.198 | 0.686 | 0.551 | 0.401 | 0.3 | 0.279
NCI-H1650 | 1.28 | 0.666 | 0.374 | 0.179 | 0.145 | 0.197 | 0.185 | 0.177 | 0.197 | 0.177 | 0.507 | 0.348 | 0.273 | 0.119 | 0.113 |  |  |  |  | 
NCI-H1703 | 0.277 | 0.238 | 0.185 | 0.175 | 0.167 |  |  |  |  |  |  |  |  |  |  | 0.118 | 0.104 | 0.105 | 0.0773 | 0.0798
NCI-H1792 |  |  |  |  |  | 0.382 | 0.286 | 0.233 | 0.206 | 0.167 |  |  |  |  |  | 0.166 | 0.0355 | 0.0254 | 0.0229 | 0.033
NCI-H2009 | 1.26 | 0.938 | 0.404 | 0.185 | 0.153 | 1.08 | 0.751 | 0.325 | 0.179 | 0.126 | 0.854 | 0.65 | 0.24 | 0.163 | 0.11 |  |  |  |  | 
NCI-H2023 | 0.966 | 0.643 | 0.586 | 0.124 | 0.0582 | 0.96 | 0.755 | 0.623 | 0.141 | 0.0596 | 0.409 | 0.385 | 0.233 | 0.101 | 0.0648 |  |  |  |  | 
NCI-H2228 | 0.913 | 0.536 | 0.198 | 0.183 | 0.0975 | 0.131 | 0.0993 | 0.14 | 0.149 | 0.124 | 0.278 | 0.209 | 0.154 | 0.108 | 0.115 |  |  |  |  | 
SK-LU-1 | 0.728 | 0.441 | 0.217 | 0.168 | 0.164 | 0.175 | 0.197 | 0.188 | 0.18 | 0.169 | 0.303 | 0.207 | 0.131 | 0.145 | 0.14 |  |  |  |  | 
SK-MES-1 | 0.987 | 0.646 | 0.319 | 0.191 | 0.201 | 0.748 | 0.328 | 0.166 | 0.239 | 0.153 | 0.691 | 0.305 | 0.197 | 0.147 | 0.126 |  |  |  |  | 
SW 1573 | 1.03 | 0.776 | 0.32 | 0.131 | 0.0835 | 0.192 | 0.166 | 0.0849 | 0.154 | 0.112 | 0.189 | 0.165 | 0.0964 | 0.0589 | 0.0466 |  |  |  |  | 
UMC-11 | 1.17 | 1.1 | 0.948 | 0.764 | 0.391 | 1.18 | 1.15 | 0.834 | 0.829 | 0.47 | 0.197 | 0.162 | 0.221 | 0.211 | 0.215 |  |  |  |  | 
